Reference: ChEMBL document CHEMBL1201862, “PubChem BioAssay data set” (2004)
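Interpolation was linear, between the two tested concentrations surrounding the appropriate level; five concentrations were tested over 48 hours in 96-well plates. The concentration for 50% growth inhibition is given as GI50.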 Active and inactive are the calls of the source. No stated cut-off is given here; in the data, active = GI50 up to about 1.1 µM and inactive = higher.

Tests used:
Assay in all cases: DTP human tumour cell line panel, 48 h
786-0 = test system: 786-0
A498 = test system: A498
A549 = test system: A549
ACHN = test system: ACHN
CAKI-1 = test system: CAKI-1
CCRF-CEM = test system: CCRF-CEM
COLO 205 = test system: COLO 205
DU-145 = test system: DU-145
EKVX = test system: EKVX
HCT-116 = test system: HCT-116
HCT-15 = test system: HCT-15
HL-60 = test system: HL-60
HOP-92 = test system: HOP-92
HT-29 = test system: HT-29
Hs-578T = test system: Hs-578T
IGROV-1 = test system: IGROV-1
K562 = test system: K562
KM12 = test system: KM12
LOX IMVI = test system: LOX IMVI
M14 = test system: M14
MCF7 = test system: MCF7
MDA-MB-231 = test system: MDA-MB-231
MDA-MB-435 = test system: MDA-MB-435
MDA-N = test system: MDA-N
MOLT-4 = test system: MOLT-4
Malme-3M = test system: Malme-3M
NCI-H226 = test system: NCI-H226
NCI-H23 = test system: NCI-H23
NCI-H460 = test system: NCI-H460
NCI-H522 = test system: NCI-H522
NCI/ADR-RES = test system: NCI/ADR-RES
OVCAR-3 = test system: OVCAR-3
OVCAR-4 = test system: OVCAR-4
OVCAR-5 = test system: OVCAR-5
OVCAR-8 = test system: OVCAR-8
PC-3 = test system: PC-3
RPMI-8226 = test system: RPMI-8226
RXF 393 = test system: RXF 393
SF-268 = test system: SF-268
SF-295 = test system: SF-295
SF-539 = test system: SF-539
SK-MEL-28 = test system: SK-MEL-28
SK-MEL-2 = test system: SK-MEL-2
SK-MEL-5 = test system: SK-MEL-5
SN12C = test system: SN12C
SNB-19 = test system: SNB-19
SNB-75 = test system: SNB-75
SR = test system: SR
SW-620 = test system: SW-620
TK-10 = test system: TK-10
U-251 = test system: U-251
UACC-257 = test system: UACC-257
UACC-62 = test system: UACC-62
UO-31 = test system: UO-31
HCC 2998 = test system: HCC 2998
SK-OV-3 = test system: SK-OV-3
T47D = test system: T47D
HOP-62 = test system: HOP-62

In the case of `C=C/C(C)=C\CC1[C@](C)(O)CC[C@H]2C(C)(C)C(=O)CC[C@]12C` (stereo not given in full), the GI50 (786-0) is reported as > 100 µM (inactive), the GI50 (A498) is reported as > 100 µM (inactive) and the GI50 (A549) is reported as 62.7 µM (inactive). For the same compound, the GI50 (ACHN) was > 100 µM (inactive), the GI50 (CAKI-1) was > 100 µM (inactive) and the GI50 (CCRF-CEM) was 46.6 µM (inactive). The GI50 (COLO 205) was 92.3 µM (inactive), the GI50 (DU-145) was > 100 µM (inactive) and the GI50 (EKVX) was > 100 µM (inactive). The GI50 (HCT-116) was 47.5 µM (inactive), the GI50 (HCT-15) was 51.9 µM and the GI50 (HL-60) was 12.1 µM (inactive). For the same compound, the GI50 (HOP-92) was > 100 µM (inactive), the GI50 (HT-29) was 47.6 µM (inactive) and the GI50 (Hs-578T) was > 100 µM (inactive). For the same compound, the GI50 (IGROV-1) was > 100 µM (inactive), the GI50 (K562) was 57.7 µM (inactive) and the GI50 (KM12) was 85.5 µM (inactive). The GI50 (LOX IMVI) was 93.8 µM (inactive), the GI50 (M14) was 39.4 µM (inactive) and the GI50 (MCF7) was 60.4 µM (inactive). For the same compound, the GI50 (MDA-MB-231) was > 100 µM (inactive), the GI50 (MDA-MB-435) was 70.5 µM (inactive) and the GI50 (MDA-N) was 96.4 µM (inactive). For the same compound, the GI50 (MOLT-4) was 19.1 µM (inactive), the GI50 (Malme-3M) was > 100 µM (inactive) and the GI50 (NCI-H226) was > 100 µM (inactive). The GI50 (NCI-H23) was 40.6 µM (inactive), the GI50 (NCI-H460) was 50.6 µM (inactive) and the GI50 (NCI-H522) was 62.7 µM (inactive). The GI50 (NCI/ADR-RES) was 60 µM (inactive), the GI50 (OVCAR-3) was 41.7 µM (inactive) and the GI50 (OVCAR-4) was 54.3 µM (inactive). For the same compound, the GI50 (OVCAR-5) was > 100 µM (inactive), the GI50 (OVCAR-8) was > 100 µM (inactive) and the GI50 (PC-3) was 34.6 µM (inactive). The GI50 (RPMI-8226) was 29 µM (inactive), the GI50 (RXF 393) was 32.3 µM (inactive) and the GI50 (SF-268) was > 100 µM (inactive). The GI50 (SF-295) was 81.7 µM (inactive), the GI50 (SF-539) was > 100 µM (inactive) and the GI50 (SK-MEL-28) was > 100 µM (inactive). For the same compound, the GI50 (SK-MEL-2) was > 100 µM (inactive), the GI50 (SK-MEL-5) was 44.4 µM (inactive) and the GI50 (SN12C) was > 100 µM (inactive). The GI50 (SNB-19) was > 100 µM (inactive), the GI50 (SNB-75) was > 100 µM (inactive) and the GI50 (SR) was 24.6 µM (inactive). For the same compound, the GI50 (SW-620) was > 100 µM (inactive), the GI50 (TK-10) was > 100 µM (inactive) and the GI50 (U-251) was > 100 µM (inactive). The GI50 (UACC-257) was 64.4 µM (inactive), the GI50 (UACC-62) was > 100 µM (inactive) and the GI50 (UO-31) was 23.9 µM (inactive).
`COc1cc2c(cc1OCCCOS(C)(=O)=O)N=C[C@@H]1CCCN1C2=O` was tested, and the GI50 (786-0) was > 100 µM (inactive), the GI50 (A498) was > 100 µM (inactive) and the GI50 (A549) was > 100 µM (inactive). The GI50 (ACHN) was > 100 µM (inactive), the GI50 (CAKI-1) was > 100 µM (inactive) and the GI50 (COLO 205) was > 100 µM (inactive). The GI50 (DU-145) was > 100 µM (inactive), the GI50 (EKVX) was > 100 µM (inactive) and the GI50 (HCC 2998) was > 100 µM (inactive). For the same compound, the GI50 (HCT-116) was > 100 µM (inactive), the GI50 (HCT-15) was over 100 µM and the GI50 (HL-60) was > 100 µM (inactive). For the same compound, the GI50 (HOP-92) was > 100 µM (inactive), the GI50 (HT-29) was > 100 µM (inactive) and the GI50 (Hs-578T) was > 100 µM (inactive). The GI50 (IGROV-1) was > 100 µM (inactive), the GI50 (KM12) was > 100 µM (inactive) and the GI50 (LOX IMVI) was > 100 µM (inactive). For the same compound, the GI50 (M14) was > 100 µM (inactive), the GI50 (MCF7) was > 100 µM (inactive) and the GI50 (MDA-MB-231) was > 100 µM (inactive). For the same compound, the GI50 (MDA-MB-435) was > 100 µM (inactive), the GI50 (MOLT-4) was > 100 µM (inactive) and the GI50 (Malme-3M) was > 100 µM (inactive). The GI50 (NCI-H226) was > 100 µM (inactive), the GI50 (NCI-H23) was > 100 µM (inactive) and the GI50 (NCI-H460) was > 100 µM (inactive). For the same compound, the GI50 (NCI-H522) was > 100 µM (inactive), the GI50 (NCI/ADR-RES) was > 100 µM (inactive) and the GI50 (OVCAR-3) was > 100 µM (inactive). For the same compound, the GI50 (OVCAR-8) was > 100 µM (inactive), the GI50 (RPMI-8226) was > 100 µM (inactive) and the GI50 (RXF 393) was > 100 µM (inactive). For the same compound, the GI50 (SF-268) was > 100 µM (inactive), the GI50 (SF-295) was > 100 µM (inactive) and the GI50 (SF-539) was > 100 µM (inactive). The GI50 (SK-MEL-28) was > 100 µM (inactive), the GI50 (SK-MEL-2) was > 100 µM (inactive) and the GI50 (SK-MEL-5) was > 100 µM (inactive). For the same compound, the GI50 (SK-OV-3) was > 100 µM (inactive), the GI50 (SN12C) was > 100 µM (inactive) and the GI50 (SNB-19) was > 100 µM (inactive). The GI50 (SW-620) was > 100 µM (inactive), the GI50 (T47D) was > 100 µM (inactive) and the GI50 (TK-10) was > 100 µM (inactive). For the same compound, the GI50 (U-251) was > 100 µM (inactive), the GI50 (UACC-257) was > 100 µM (inactive) and the GI50 (UACC-62) was > 100 µM (inactive). For the same compound, the GI50 (UO-31) was > 100 µM (inactive).
In the case of `CCOC(=O)c1c(SC(=O)/C=C/c2ccccc2)n(-c2ccccc2)c(=S)n(-c2ccccc2)c1=O`, the GI50 (786-0) is reported as > 100 µM (inactive), the GI50 (A498) is reported as > 100 µM (inactive) and the GI50 (A549) is reported as > 100 µM (inactive). The GI50 (ACHN) was > 100 µM (inactive), the GI50 (CAKI-1) was > 100 µM (inactive) and the GI50 (CCRF-CEM) was > 100 µM (inactive). For the same compound, the GI50 (COLO 205) was > 100 µM (inactive), the GI50 (DU-145) was > 100 µM (inactive) and the GI50 (EKVX) was > 100 µM (inactive). For the same compound, the GI50 (HCC 2998) was > 100 µM (inactive), the GI50 (HCT-116) was > 100 µM (inactive) and the GI50 (HCT-15) was over 100 µM. The GI50 (HOP-62) was > 100 µM (inactive), the GI50 (HOP-92) was > 100 µM (inactive) and the GI50 (HT-29) was > 100 µM (inactive). For the same compound, the GI50 (Hs-578T) was > 100 µM (inactive), the GI50 (IGROV-1) was > 100 µM (inactive) and the GI50 (K562) was > 100 µM (inactive). The GI50 (KM12) was > 100 µM (inactive), the GI50 (LOX IMVI) was > 100 µM (inactive) and the GI50 (M14) was > 100 µM (inactive). The GI50 (MCF7) was > 100 µM (inactive), the GI50 (MDA-MB-231) was > 100 µM (inactive) and the GI50 (MDA-MB-435) was > 100 µM (inactive). For the same compound, the GI50 (MOLT-4) was > 100 µM (inactive), the GI50 (Malme-3M) was > 100 µM (inactive) and the GI50 (NCI-H226) was > 100 µM (inactive). For the same compound, the GI50 (NCI-H23) was > 100 µM (inactive), the GI50 (NCI-H460) was > 100 µM (inactive) and the GI50 (NCI-H522) was > 100 µM (inactive). The GI50 (NCI/ADR-RES) was > 100 µM (inactive), the GI50 (OVCAR-3) was > 100 µM (inactive) and the GI50 (OVCAR-4) was > 100 µM (inactive). The GI50 (OVCAR-5) was > 100 µM (inactive), the GI50 (OVCAR-8) was > 100 µM (inactive) and the GI50 (PC-3) was > 100 µM (inactive). For the same compound, the GI50 (RXF 393) was > 100 µM (inactive), the GI50 (SF-268) was > 100 µM (inactive) and the GI50 (SF-295) was > 100 µM (inactive). For the same compound, the GI50 (SF-539) was > 100 µM (inactive), the GI50 (SK-MEL-28) was > 100 µM (inactive) and the GI50 (SK-OV-3) was > 100 µM (inactive). For the same compound, the GI50 (SN12C) was > 100 µM (inactive), the GI50 (SNB-19) was > 100 µM (inactive) and the GI50 (SNB-75) was > 100 µM (inactive). For the same compound, the GI50 (SR) was > 100 µM (inactive), the GI50 (SW-620) was > 100 µM (inactive) and the GI50 (T47D) was > 100 µM (inactive). The GI50 (TK-10) was > 100 µM (inactive), the GI50 (U-251) was > 100 µM (inactive) and the GI50 (UACC-257) was > 100 µM (inactive). For the same compound, the GI50 (UACC-62) was > 100 µM (inactive).
